Measurements as given in patent US9701631B2, “TIP60 inhibitors” (The Trustees Of The University Of Pennsylvania, priority 2010, dated 2017).
One block for each compound: values may come before it.

How the values were obtained:
[1] = system: Treg suppression of T cell proliferation; assay: Treg suppression assay in vitro (T cell proliferation, 3 days, CFSE dye, flow cytometry); format: cell-based; conditions: for enhancement of suppression of Treg in vitro: 500x dilution of 10 mM solution (20 micromolar), FIG. 10; for percentage of proliferated cells: Treg:Teff=1:1
Excerpt: FIGS. 8A-D are flow cytometry dataplots showing the enhancement of TIP60 inhibitor B7 suppression of Treg in vitro. Individual peaks reflect number of cells divisions under the standard test conditions (3 days), where the cell populations are dyed with CFSE (carboxyfluorescen diacetate, succimidyl ester). FIG. 8A are the data for DMSO without B7; FIG. 8B are the data for B7-1000×; FIG. 8C are the data for B7-4000×; and FIG. 8D are the data for B7-8000. In each case, the 1000×/4000×/8000× refers to the dilution factor of the B7, from an original 10 mM solution of B7; e.g, 1000× represents a solution diluted by a factor of 1000, so as to result in a 10 micromolar solution. The numbers in the upper left corner of the plot (e.g., 88, 81, 74, 65, and 37 of FIG. 8A) refer to the measured percentage of proliferated cells.
FIGS. 10A-E are flow cytometry dataplots showing the enhancement of TIP60 inhibitors B7 suppression of Treg in vitro. FIG. 10A are the data for DMSO without any B7-type inhibitor; FIG. 10B are the data for B7-500×; FIG. 10C are the data for B7A-500×; FIG. 10D are the data for B7B-500; and FIG. 10E are the data for B7C-500×. In each case, the 500× refers to the dilution factor of the B7/B7A/B7B/B7C, from an original 10 mM solution of the compound; e.g, 500× represents a solution diluted by a factor of 500, so as to result in a 20 micromolar solution.
Several exemplary compounds of the present invention were screened at 10 μg/ml in vitro, at varying Treg:T cell ratios, using standard cell proliferation techniques (3 days, using CSFE dyes). Such techniques are well understood by those skilled in the art. For example, see Akimova T, Ge G, Golovina T, Mikheeva T, Wang L, Riley J L, Hancock W W., “Histone/protein deacetylase inhibitors increase suppressive functions of human FOXP3+ Tregs,” Clin Immunol. 2010 September; 136(3):348-63; Tao R, Hancock W W., Resistance of FOXP3+ regulatory T cells to Nur77-induced apoptosis promotes allograft survival,” PLoS One. 2008 May 28; 3(5):e2321; Tao R, Wang L, Murphy K M, Fraser C C, Hancock W W., “Regulatory T cell expression of herpesvirus entry mediator suppresses the function of B and T lymphocyte attenuator-positive effector T cells.,” J. Immunol. 2008 May 15; 180(10):6649-55; and Tao R, de Zoeten E F, Ozkaynak E, Chen C, Wang L, Porrett P M, Li B, Turka L A, Olson E N, Greene M I, Wells A D, Hancock W W., “Deacetylase inhibition promotes the generation and function of regulatory T cells,” Nat. Med. 2007 November; 13(11):1299-307 for the protocols used herein. Each of these references is incorporated by reference herein, at least for this purpose.
T cell proliferation was unimpaired in the absence of Treg cells (see left panels in FIG. 8A-D), but was increasingly impaired at increasing Treg concentration (for example, in FIG. 8A, increasing Treg:Tcell ratio from 0:1 to 1:1 reduced proliferation from 88% to 37% under otherwise identical conditions). […] Efficacy was also seen at 1 μg/ml for some compounds.

FOXP3 = FOXP3 bound on chromatin in SZ-4 T cells (Western blot); format: cell-based; conditions: FIG. 9
TIP60 = biological target: T1, TIP60 (Homo sapiens, UniProt Q92993); assay: TIP60 activity by acetylation of TIP60 or its substrate FOXP3 in transfected 293T cells (Ac-K immunoprecipitation, Western blot); format: cell-based; conditions: 4 hours
T1 construct: expressed in transfected cells; host or cells: 293T cells
Procedure: FIG. 11 illustrate the effect of B7G on TIP60. TIP60 activity was assessed by examining acetylation of TIP60 or its substrate FOXP3. Both TIP60 and FOXP3 were overexpressed in 293T cells. Acetylated proteins were first immunoprecipitated with the acetyl-lysine specific antibody Ac-K and then blotted with HRP conjugated antibodies to expression tags (HA for FOXP3 or FLAG for TIP60).
TIP60 is known to have acetyl transferase activity to acetylate itself (auto-acetylation) or substrates including FOXP3. To examine activity of B7G on TIP60, 293T cells were transfected with Flag-tagged TIP60 and HA-tagged FOXP3. 24 hours after transfection, cells were treated with various concentrations of B7G for 4 hours before cell lysates were collected. Acetylated proteins were precipitated by anti-acetyl lysine antibody Ac-K. FOXP3 and TIP60 in the lysate or precipitated by Ac-K antibody were identified by anti-HA-HRP and anti-FLAG-HRP respectively.

[2] = system: dextran sodium sulfate (DSS) model of colitis; assay: DSS model of established colitis in mice, remedial treatment; format: in vivo
Procedure: FIGS. 12A-C are the result of experiments described in Example 5. […] FIG. 12C provide graphical data for weight loss, bleeding score, and stool consistency (i.e., higher score reflects higher levels of diarrhea), wherein the mice were first subjected to DSS irritation, then subset populations were remedially treated after 8 days with the compound having Structure B7.
In a first test, the effects of exposure to dextran sodium sulfate (DSS) were evaluated, which results in a partially CD4-dependent inflammatory model of colitis, in wildtype (WT) versus TIP60dn C57BL/6 mice (8 mice/group).
Data were also generated using the compound of Structure B7 in the DSS model, in an experiment designed to test the ability of TIP60 inhibitor therapy to reverse established colitis by waiting until mice had ˜15% weight loss. In marked contrast to use of carrier DMSO alone, TIP60 inhibitor therapy (2 mg/kg/d, i.p.) reversed weight loss (p<0.01), blood in the stool (p<0.01) and diarrhea (p<0.005) (see FIG. 12C) and maintained colon length (p<0.01).

[3] = 2 mg/kg/d i.p., vs carrier DMSO, p<0.01

T1 sequence (Q92993 whole entry, species assumed): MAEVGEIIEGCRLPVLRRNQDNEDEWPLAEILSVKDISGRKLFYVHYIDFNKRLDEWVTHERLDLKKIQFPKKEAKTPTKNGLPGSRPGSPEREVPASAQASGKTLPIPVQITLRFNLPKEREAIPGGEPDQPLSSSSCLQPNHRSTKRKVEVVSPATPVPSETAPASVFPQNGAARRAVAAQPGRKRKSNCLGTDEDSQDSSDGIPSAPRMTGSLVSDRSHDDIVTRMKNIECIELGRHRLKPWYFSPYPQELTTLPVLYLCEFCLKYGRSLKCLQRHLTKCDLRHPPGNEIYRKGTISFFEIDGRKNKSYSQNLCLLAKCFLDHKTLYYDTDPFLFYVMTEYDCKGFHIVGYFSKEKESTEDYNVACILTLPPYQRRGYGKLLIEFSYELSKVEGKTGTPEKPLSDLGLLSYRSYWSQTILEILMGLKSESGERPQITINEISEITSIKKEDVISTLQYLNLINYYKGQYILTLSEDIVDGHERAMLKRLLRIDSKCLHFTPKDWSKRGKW

Structure (SMILES): O=C(Nc1ccc(Cl)cc1)C1CC(=O)N(CCc2ccc(Cl)cc2)C1 (stereo not drawn) [B7A]
- enhancement of suppression of Treg in vitro [1]: enhancement

Structure (SMILES): COc1ccc(NC(=O)C2CC(=O)N(CCc3ccc(Cl)cc3)C2)cc1 (stereo not drawn) [B7B]
- enhancement of suppression of Treg in vitro [1]: enhancement

Structure (SMILES): Cc1ccc2cc(NC(=O)C3CC(=O)N(CCc4ccc(Cl)cc4)C3)ccc2n1 (stereo not drawn) [B7C]
- enhancement of suppression of Treg in vitro [1]: enhancement
- FOXP3 bound on chromatin (FOXP3): intervening with FOXP3 bound on chromatin

- Acetylated FOXP3 (HA-HRP blot of Ac-K precipitated proteins) (TIP60; 32 μg/ml): reduced significantly
- Acetylated TIP60 (FLAG-HRP blot of Ac-K precipitated proteins) (TIP60; 32 μg/ml): reduced significantly
- TIP60 auto-acetylation (TIP60; lower concentration than 32 μg/ml): slightly increase
- FOXP3 expression level in total cell lysate (TIP60; various concentrations): not significantly affected
- TIP60 expression level in total cell lysate (TIP60; various concentrations): not significantly affected
Structure (SMILES): COc1ccc(CCN2CC(C(=O)Nc3ccc(F)c(Cl)c3)CC2=O)cc1OC (stereo not drawn) [B7G]

Structure (SMILES): Cc1ccc(NC(=O)C2CC(=O)N(CCc3ccc(Cl)cc3)C2)cc1 (stereo not drawn) [B7]
- enhancement of suppression of Treg in vitro [1]: enhancement
- T cell proliferation in the absence of Treg cells ([1]; Treg:Tcell 0:1, left panels FIG. 8A-D): unimpaired
- percentage of proliferated cells ([1]; FIG. 8B (B7-1000x dilution of 10 mM, 10 μM), highest B7 dosage): 25%
- percentage of proliferated cells ([1]; FIG. 8C (B7-4000x dilution of 10 mM), middle B7 dosage): 30%
- percentage of proliferated cells ([1]; FIG. 8D (B7-8000x dilution of 10 mM), lowest B7 dosage): 37%
- Treg activity (decreasing Tcell proliferation) ([1]; dose dependent, varying Treg:T cell ratios): enhanced the Treg activity
- weight loss ([2]; 2 mg/kg/d i.p., started at ~15% weight loss, vs carrier DMSO, p<0.01): reversed
- diarrhea ([2]; 2 mg/kg/d i.p., vs carrier DMSO, p<0.005): reversed
- blood in the stool [2, 3]: reversed
- colon length [2, 3]: maintained
- colon length relative to that of an unstressed control animal ([2]; single animal, 3% DSS then B7): about 94%
- spleen size relative to control animal ([2]; single remediated animal, 3% DSS then B7): comparable in size to that of the control
